In the supplement of paper PMC5844555:

Legend:
Assay in all cases: 3' UTR reporter interaction score (median-centred robust z-score of log2 firefly/Renilla activity); higher = less repression of the 3' UTR reporter
Details in all cases: HEK293T; 48 h
FBXW7 = test system: FBXW7
How it was run: (§1)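 A firefly luc2P reporter carrying the gene's 3' UTR (100 ng), Renilla pRL-TK control (20 ng) and miRNA mimic (2.5 pmol) were co-transfected with DharmaFECT Duo into HEK293T cells plated at 10,000/well in 96-well plates. Luciferase activities were read 48 h post-transfection. The interaction score is the log firefly/Renilla ratio as a per-plate robust z-score from median and median absolute deviation, median-centred per miRNA, and more negative indicates interaction. Values are averages of at least two independent screens.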

MYT1L = test system: MYT1L
How it was run: as §1

HRAS = test system: HRAS
How it was run: as §1

PHOX2B = test system: PHOX2B
How it was run: as §1

MYB = test system: MYB
How it was run: as §1

TP53 = test system: TP53
How it was run: as §1

MYC = test system: MYC
How it was run: as §1

NOTCH1 = test system: NOTCH1
How it was run: as §1

PHF6 = test system: PHF6
How it was run: as §1

MYCN = test system: MYCN
How it was run: as §1

BRCA2 = test system: BRCA2
How it was run: as §1

RB1 = test system: RB1
How it was run: as §1

ZEB2 = test system: ZEB2
How it was run: as §1

EZH2 = test system: EZH2
How it was run: as §1

Sequence | 3' UTR reporter interaction score (FBXW7) | 3' UTR reporter interaction score (MYT1L) | 3' UTR reporter interaction score (HRAS) | 3' UTR reporter interaction score (PHOX2B) | 3' UTR reporter interaction score (MYB) | 3' UTR reporter interaction score (TP53) | 3' UTR reporter interaction score (MYC) | 3' UTR reporter interaction score (NOTCH1) | 3' UTR reporter interaction score (PHF6) | 3' UTR reporter interaction score (MYCN) | 3' UTR reporter interaction score (BRCA2) | 3' UTR reporter interaction score (RB1) | 3' UTR reporter interaction score (ZEB2) | 3' UTR reporter interaction score (EZH2)
UGUUUGCAGAGGAAACUGAGAC | -1.52 | -0.13 | 1.34 | -0.484 | 1.43 | -0.173 | 0.778 | -0.933 | -0.0326 | 0.322 | -0.0179 | -0.175 | -1.2 | 0.739
UCCAGUACCACGUGUCAGGGCCA | -1.35 | 0.747 | 0.159 | 0.294 | 0.593 | -0.171 | -0.893 | 0.223 | -0.805 | -3.01 | 0.581 | 0.837 | 0.742 | -1.44
UUAUAAUACAACCUGAUAAGUG | -0.529 | -1.13 | 0.161 | -0.00808 | -0.653 | -0.443 | 1.32 | -0.345 | -0.286 | 0.404 | 0.693 | 1.94 | -0.469 | 0.963
UAGCAGCACAUCAUGGUUUACA | -2.93 | -3.09 | -0.34 | 0.488 | -1.34 | -0.579 | 0.39 | -0.541 | 0.453 | 0.0626 | -0.138 | 0.792 | 2.82 | -0.225
AGGACCUGCGGGACAAGAUUCUU | -0.188 | -0.0205 | -0.0697 | 1.33 | 0.35 | -0.45 | -0.0464 | 0.243 | -0.476 | -0.207 | 0.115 | 0.102 | 0.526 | -0.425
UAGCACCAUCUGAAAUCGGUU | -3.02 | -0.146 | 0.469 | -0.351 | 0.702 | -0.0665 | 0.338 | 0.229 | -0.0911 | -3.08 | 0.502 | -0.626 | -0.458 | 0.717
UCACAGUGAACCGGUCUCUUUU | -1.07 | -2.56 | -2.6 | -1.31 | 0.662 | 0.412 | -0.0365 | -0.144 | 1.79 | 1.36 | -0.31 | 1.15 | -4.74 | 0.47
CAAAGCGCUUCUCUUUAGAGUG | -1.3 | -0.533 | 0.465 | -1.15 | -0.443 | 0.068 | 1.05 | 0.203 | 1.07 | -0.402 | 0.562 | -4.99e-18 | -0.101 | 0.725
CUGAAGUGAUGUGUAACUGAUCAG | -0.0116 | 1.21 | 0.253 | -1.07 | -1.34 | 0.516 | 0.252 | 2.11 | -0.442 | -0.441 | -1.33 | -0.534 | -0.764 | 0.809
AAAGUGCAUCCUUUUAGAGGUUU | 0.961 | -1.16 | -0.233 | 0.434 | -1.97 | 0.429 | -0.372 | 1.67 | -0.0516 | 0.904 | -0.233 | -0.148 | 0.526 | -0.589
UAUGGCACUGGUAGAAUUCACUG | 0.255 | 0.00898 | -0.187 | 0.374 | 0.482 | -0.0687 | 0.422 | -0.295 | -1.31 | 0.735 | 0.00324 | -0.628 | -2.1 | 0.196
UUCAACGGGUAUUUAUUGAGCA | 0.647 | -0.699 | 1.35 | 0.542 | -0.5 | 0.52 | -0.455 | -0.631 | -0.872 | 0.423 | 0.803 | 0.475 | -0.63 | 0.563
UGUGUCACUCGAUGACCACUGU | 1.58 | -1.73 | 1.13 | 0.976 | -0.364 | 0.4 | 0.947 | -1.12 | -0.745 | 0.203 | 0.0202 | -0.876 | 0.295 | 1.04
UACAGUACUGUGAUAACUGAAG | -3.92 | 0.686 | 0.843 | 0.00398 | 0.694 | -0.59 | 0.128 | -1.33 | -0.261 | -3.49 | 0.0293 | 0.982 | -0.268 | -3.4
UUAUGGUUUGCCUGGGACUGAG | -3.46 | 1.06 | 0.369 | 0.156 | 1.44 | -1.16 | 0.675 | -0.409 | -0.769 | -0.255 | 0.104 | -0.796 | -0.72 | 0.163
UCCGAGCCUGGGUCUCCCUCU | 0.832 | 1.66 | -0.0807 | 1.22 | -0.402 | 0.107 | -0.43 | 0.141 | -0.194 | -0.731 | 0.0314 | 0.559 | -0.318 | 0.213
UCCCUGAGACCCUAACUUGUGA | -0.252 | 0.796 | 1.12 | -1.65 | -0.19 | -1.15 | 1.24 | -0.154 | 0.386 | 0.264 | 1.7 | -0.398 | 1.05 | 0.82
ACAAAGUGCUUCCCUUUAGAGUGU | -0.043 | -0.448 | 0.36 | 1.18 | 0.347 | -0.281 | -0.0807 | 0.486 | -0.618 | -0.406 | -0.733 | 0.896 | -0.058 | -0.507
UGGCAGUGUCUUAGCUGGUUGUU | -0.0417 | 1.45 | 1.33 | -0.535 | -2.9 | 1.68 | -0.668 | -3.59 | -0.889 | -3.64 | 0.486 | -0.641 | 0.283 | 0.955
